ChEMBL document CHEMBL1133848, “Novel synthesis and RNA-binding properties of aminoglycoside dimers conjugated via a naphthalene diimide-based intercalator” (Bioorg Med Chem Lett, 2001)

Test: Dissociation constant with dimeric 16S rRNA RNA construct B

| Compound | Kd |
| --- | --- |
| NC[C@H]1O[C@H](O[C@H]2[C@H](O)[C@@H](O[C@H]3O[C@H](CSCCOCCSCC(O)CN4C(=O)c5ccc6c7c(ccc(c57)C4=O)C(=O)N(CC(O)CSCCOCCSC[C@H]4O[C@H](O[C@@H]5[C@@H](O)[C@H](O[C@H]7O[C@H](CN)[C@@H](O)C[C@H]7N)[C@@H](N)C[C@H]5N)[C@H](O)[C@@H](N)[C@@H]4O)C6=O)[C@@H](O)[C@H](N)[C@H]3O)[C@H](N)C[C@@H]2N)[C@H](N)C[C@@H]1O (some centres undefined) | 1110 nM |
| NC[C@H]1O[C@H](O[C@H]2[C@H](O)[C@@H](O[C@H]3O[C@H](CO)[C@@H](O)[C@H](N)[C@H]3O)[C@H](N)C[C@@H]2N)[C@H](N)C[C@@H]1O [TOBRAMYCIN] | 1680 nM |
| NC[C@@H]1O[C@H](O[C@H]2[C@@H](O)[C@H](O[C@@H]3[C@@H](O)[C@H](N)C[C@H](N)[C@H]3O[C@H]3O[C@H](CN)[C@@H](O)[C@H](O)[C@H]3N)O[C@@H]2CO)[C@H](N)[C@@H](O)[C@@H]1O [FRAMYCETIN] | 350 nM |
| CN(C)C1=CC2Oc3cc(N(C)C)ccc3C(c3ccc(C(=O)NC[C@@H]4O[C@H](O[C@H]5[C@@H](O)[C@H](O[C@@H]6[C@H](O)[C@H](N)C[C@@H](N)[C@H]6O[C@H]6O[C@@H](CO)[C@@H](O)[C@H](O)[C@@H]6N)O[C@@H]5CO)[C@H](N)[C@H](O)[C@@H]4O)cc3C(=O)O)=C2C=C1 (some centres undefined) | 280 nM |

The next lines start with the values.

| Kd | Compound |
| --- | --- |
| 150 nM | NC[C@@H]1O[C@H](O[C@H]2[C@@H](O)[C@H](O[C@H]3[C@H](O)[C@@H](N)C[C@@H](N)[C@@H]3O[C@H]3O[C@H](CN)[C@@H](O)[C@H](O)[C@H]3N)O[C@@H]2CSCCOCCSCC(O)CN2C(=O)c3ccc4c5c(ccc(c35)C2=O)C(=O)N(CC(O)CSCCOCCSC[C@H]2O[C@H](O[C@@H]3[C@@H](O)[C@H](O[C@H]5O[C@H](CN)[C@@H](O)C[C@H]5N)[C@@H](N)C[C@H]3N)[C@H](O)[C@@H](N)[C@@H]2O)C4=O)[C@H](N)[C@@H](O)[C@@H]1O (some centres undefined) |
| 290 nM | NCC1O[C@H](O[C@H]2[C@@H](O)[C@H](O[C@H]3[C@H](O)[C@@H](N)C[C@@H](N)[C@@H]3O[C@H]3O[C@H](CN)[C@@H](O)[C@H](O)[C@H]3N)O[C@@H]2CSCCOCCSSCCOCCSC[C@H]2O[C@H](O[C@@H]3[C@@H](O)[C@H](O[C@H]4O[C@H](CN)[C@@H](O)C[C@H]4N)[C@@H](N)C[C@H]3N)[C@H](O)[C@@H](N)[C@@H]2O)[C@H](N)[C@@H](O)[C@@H]1O (some centres undefined) |
| 20 nM | NCC1O[C@H](O[C@H]2[C@@H](O)[C@H](O[C@H]3[C@H](O)[C@@H](N)C[C@@H](N)[C@@H]3O[C@H]3O[C@H](CN)[C@@H](O)[C@H](O)[C@H]3N)O[C@@H]2CSCCOCCSSCCOCCSC[C@H]2O[C@@H](O[C@H]3[C@H](O)[C@@H](N)C[C@@H](N)[C@@H]3O[C@H]3O[C@H](CN)[C@@H](O)[C@H](O)[C@H]3N)[C@H](O)[C@@H]2O[C@@H]2OC(CN)[C@H](O)[C@@H](O)[C@@H]2N)[C@H](N)[C@@H](O)[C@@H]1O (some centres undefined) |
| 10 nM | NC[C@@H]1O[C@H](O[C@@H]2[C@H](O[C@@H]3OC(CSCCOCCSCC(O)CN4C(=O)c5ccc6c7c(ccc(c57)C4=O)C(=O)N(CC(O)CSCCOCCSC[C@H]4O[C@@H](O[C@H]5[C@H](O)[C@@H](N)C[C@@H](N)[C@@H]5O[C@H]5O[C@H](CN)[C@@H](O)[C@H](O)[C@H]5N)[C@H](O)[C@@H]4O[C@H]4O[C@@H](CN)[C@@H](O)[C@H](O)[C@H]4N)C6=O)[C@@H](O[C@@H]4O[C@H](CN)[C@H](O)C(O)[C@H]4N)[C@H]3O)[C@@H](O)[C@@H](N)C[C@@H]2N)[C@@H](N)[C@@H](O)[C@@H]1O (some centres undefined) |
| 1810 nM | NC[C@H]1O[C@H](O[C@H]2[C@H](O)[C@@H](O[C@H]3O[C@H](CSCCOCCSSCCOCCSC[C@H]4O[C@H](O[C@@H]5[C@@H](O)[C@H](O[C@H]6O[C@H](CN)[C@@H](O)C[C@H]6N)[C@@H](N)C[C@H]5N)[C@H](O)[C@@H](N)[C@@H]4O)[C@@H](O)[C@H](N)[C@H]3O)[C@H](N)C[C@@H]2N)[C@H](N)C[C@@H]1O [Tobramycin-Tobramycin] |
